Here are results for 9 compounds from PMC8704661, “A Structural Approach to Anti-Virulence: A Discovery Pipeline” (Microorganisms, 2021).

“Also recorded” adds a separate entry of the source.

A word on the Kd: it is the concentration at which binding is half-saturated. Low readings indicate higher affinity, high ones lower affinity. Usually IC50 stands for the concentration at which inhibition is half-maximal. A word on the Ki: it is a measure of affinity in units of concentration, obtained from inhibition or displacement.

Data set [1] concerns model insect cell culture. On the set-up: method as in PMID 34564612. The following applies: cited from earlier work.
Data set [2] addresses T1, Plx2A (Paenibacillus larvae, UniProt M9V3B7). Conditions: cited from earlier work.
In data set [3] the target is T1, Plx2A. The experiment in a line: biochemical. The class given is binding.
Data set [4] addresses T1, Plx2A. Briefly: biochemical.
Another data set concerns Vis toxin. On the set-up: method as in PMID 26352925. Conditions: cited from earlier work.
Data set [5] concerns P. larvae ERIC I-infected honey bee larva. On the set-up: method as in PMID 34564612. The following applies: P. larvae ERIC I infection; cited from earlier work.
The next data set deals with C3bot1. Conditions: cited from earlier work.
The test system of another data set is C3larvin. The arrangement: method as in PMID 25477523. Conditions: read-out: Ki (C3larvin mART enzymatic activity); cited from earlier work.
Another data set relates to Pseudomonas aeruginosa. On the set-up: method as in PMID 34740095. Conditions: cited from earlier work.
Another data set relates to Escherichia coli. The arrangement: method as in PMID 34740095. The following applies: cited from earlier work.
The test system of another data set is Staphylococcus aureus. The arrangement: method as in PMID 34740095. Conditions: cited from earlier work.

For `COc1ccc(-c2cc(=O)c3c(O)cc(O)cc3o2)cc1` [Acacetin, 5,7-dihydroxy-2-(4-methoxyphenyl)-4H-chromen-4-one], in data set [1], the “Concentration that protected the cell culture against Plx2A cytotoxicity (prevented bi-nucleated cells)” value was 30 µM and the “Protection of cultured insect cells from Plx2A intoxication” value (shortened to “Protection of cultured insect cells”) is reported as “protected the cultured cells from Plx2A intoxication”. In addition, the “Inhibition of Plx2A GH activity” value at Plx2A [2] is recorded as “strong inhibitors”.

Regarding `O=c1cc(-c2ccccc2)oc2cc(O)c(O)c(O)c12` [Baicalein, 5,6,7-trihydroxy-2-phenyl-4H-chromen-4-one], the “Protection of cultured insect cells” value in data set [1] is recorded as “not Baicalein”. The “Inhibition of Plx2A GH activity” value at Plx2A [2] is given as “strong inhibitors”.

In the case of `O=c1cc(-c2ccccc2)oc2cc(O)cc(O)c12` [Chrysin, 5,7-dihydroxy-2-phenyl-4H-chromen-4-one], at Plx2A [3], the Kd worked out at 40.6 ± 4.7 µM. The same compound yielded an IC50 against Plx2A [4] of 49.2 ± 2.5 µM.

For `CS(=O)(=O)NC[C@@H]1CCCN(c2ncnc3[nH]ncc23)C1` [Inhibitor M3, N-{[(3R)-1-{1H-pyrazolo[3,4-d]pyrimidin-4-yl}piperidin-3-yl]methyl}methanesulfon amide], the “Inhibition of Vis toxin” value with Vis toxin is “effective inhibitor”. The “Protection of honey bee larva / reduction of larval mortality” value in [5] is “failed to protect honey bee larva”. Besides, in data set [1], the “Concentration that protected the cell culture against Plx2A cytotoxicity (prevented bi-nucleated cells)” value is 300 µM and the “Protection of cultured insect cells” value is “protected the cultured cells from Plx2A intoxication”. In addition, the “Inhibition of C3bot1” value in the data set with C3bot1 is “effective inhibitor”. For the same compound, the “Inhibition of Plx2A GH activity” value on Plx2A [2] is listed as “potent inhibitor; also recorded: strong inhibitors”. For the same compound, in the data set on C3larvin, the Ki was 11 µM. The IC50 on Plx2A [4] was 216 ± 22.7 µM.

`COc1cc(-c2cc(=O)c3c(O)c(OC)c(O)cc3o2)ccc1O` [Jaceosidin, 5,7-dihydroxy-2-(4-hydroxy-3-methoxyphenyl)-6-methoxy-4H-chromen-4-one] came in with a Kd at Plx2A [3] of 24.1 ± 2.9 µM. For the same compound, at Plx2A [4], the IC50 came out at 73.9 ± 4.7 µM.

On Plx2A [3], `O=c1c(O)c(-c2ccc(O)cc2)oc2cc(O)cc(O)c12` [Kaempferol, 3,5,7-trihydroxy-2-(4-hydroxyphenyl)-4H-chromen-4-one] displayed a Kd of 37.3 ± 3.6 µM. The IC50 at Plx2A [4] turned out to be 79.9 ± 6 µM.

On Plx2A [3], `O=c1cc(-c2ccc(O)c(O)c2)oc2cc(O)cc(O)c12` [Luteolin, 2-(3,4-dihydroxyphenyl)-5,7-dihydroxy-4H-chromen-4-one] came in with a Kd of 24 ± 1.5 µM. Moreover, the IC50 against Plx2A [4] worked out at 68.1 ± 1.8 µM.

For the compound `O=c1c(O)c(-c2ccc(O)cc2O)oc2cc(O)cc(O)c12` [Morin, 2-(2,4-dihydroxyphenyl)-3,5,7-trihydroxy-4H-chromen-4-one], binding at Plx2A [3] was put at a Kd of 32.8 ± 11.7 µM. This compound displayed an IC50 on Plx2A [4] of 109 ± 4.8 µM.

Turning to `O=c1c(O)c(-c2ccc(O)c(O)c2)oc2cc(O)cc(O)c12` [Quercetin, 2-(3,4-dihydroxyphenyl)-3,5,7-trihydroxy-4H-chromen-4-one], binding at Plx2A [3] was put at a Kd of 19.9 ± 0.4 µM. The “Antibacterial activity” value with Pseudomonas aeruginosa was “potent antibacterial activity”. In addition, the “Antibacterial activity” value in the data set with Escherichia coli is listed as “potent antibacterial activity”. In addition, in the data set with Staphylococcus aureus, the “Antibacterial activity” value is given as “potent antibacterial activity”. In addition, on Plx2A [4], the IC50 was 24.3 ± 0.8 µM, the Ki worked out at 18 ± 2.8 µM and the “Mechanism of inhibition of Plx2A GH activity (Lineweaver-Burk)” value is “non-competitive inhibition; also recorded: non-competitive mechanism”.
